Measurements: ChEMBL document CHEMBL3871268, “Chalcogen containing heterocyclic scaffolds: New hybrids with antitumoral activity” (Eur J Med Chem, 2016)
Residues, ends and D or L forms follow the SMILES beside them. *: point of attachment. Cbz = O=C(OCc1ccccc1)*; CH2F = FC*

Assays:
[1] = Cytotoxicity against human MCF7 cells assessed as reduction in cell viability measured after 72 hrs by MTT assay; format: functional; settings: MCF7, 72 h
[2] = Cytotoxicity against human PC3 cells assessed as reduction in cell viability measured after 72 hrs by MTT assay; format: functional; settings: PC-3, 72 h
[3] = Cell cycle arrest in human MCF7 cells assessed as sub-diploid cells at 50 uM pretreated with pan-caspase inhibitor Z-VAD-FMK for 1 hr followed by compound addition measured after 48 hrs by propidium iodide staining-based flow cytometry assay (reference value: 1.9%); format: functional; parameters: scale not given: the % may be the effect or the level left
[4] = Cell cycle arrest in human MCF7 cells assessed as M1 quadrant cells at 50 uM pretreated with pan-caspase inhibitor Z-VAD-FMK for 1 hr followed by compound addition measured after 48 hrs by propidium iodide staining-based flow cytometry assay (reference value: 98.1%); format: functional; parameters: scale not given: the % may be the effect or the level left
[5] = Cytotoxicity against human 184B5 cells assessed as reduction in cell viability measured after 72 hrs by MTT assay; format: toxicity, cell-based; settings: for GI50 at 72 h: 184B5 cells; for LC50 / TGI: 184b5, 72 h
MCF7 = assay: Selectivity index, ratio of GI50 for human 184B5 cells to GI50 for human MCF7 cells; format: functional
[6] = Cell cycle analysis in human MCF7 cells assessed as accumulation at S phase at 6 uM measured after 24 hrs by propidium iodide staining-based flow cytometry (reference value: 15.3%); format: functional
[7] = Cell cycle analysis in human MCF7 cells assessed as accumulation at SubG1 phase at 6 uM measured after 24 hrs by propidium iodide staining-based flow cytometry (reference value: 2.6%); format: functional
[8] = Cell cycle analysis in human MCF7 cells assessed as accumulation at G0/G1 phase at 6 uM measured after 24 hrs by propidium iodide staining-based flow cytometry (reference value: 73.6%); format: functional
[9] = Cell cycle analysis in human MCF7 cells assessed as accumulation at G2/M phase at 6 uM measured after 24 hrs by propidium iodide staining-based flow cytometry (reference value: 8.9%); format: functional

| Compound | GI50 [1] [µM] | LC50 [1] [µM] | TGI [1] [µM] | GI50 [2] [µM] | LC50 (concentration lethal to 50% of cells) [2] [µM] | TGI [2] [µM] | Activity [3] [%] | Activity [4] [%] | GI50 at 72 h [5] [µM] | LC50 [5] [µM] | TGI [5] [µM] | RatioGI50 (MCF7) | Activity [6] [%] | Activity [7] [%] | Activity [8] [%] | Activity [9] [%] |
| --- | --- | --- | --- | --- | --- | --- | --- | --- | --- | --- | --- | --- | --- | --- | --- | --- |
| N#CSc1nc2ccccc2s1 | 40.1 | 87.7 | 67.6 | 42 | 85.5 | 66.3 | – | – | – | – | – | – | – | – | – | – |
| CC(C)[C@H](NC(=O)OCc1ccccc1)C(=O)N[C@@H](C)C(=O)N[C@@H](CC(=O)O)C(=O)CF (Cbz-Val-Ala-Asp-CH2F) | – | – | – | – | – | – | 3.9 | 96.1 | – | – | – | – | – | – | – | – |
| O=C1c2ccccc2C(=O)N1C[SeH] | 6 | 12.5 | 8.2 | 6.4 | 16.9 | 9.4 | – | – | 12.7 | 21.9 | 17.4 | 2.1 | – | – | – | – |
| Sc1nc2ccccc2s1 [2-MERCAPTOBENZOTHIAZOLE] | > 100 | – | > 100 | 84.9 | – | > 100 | – | – | – | – | – | – | – | – | – | – |
| SCc1cc2c(cc1Br)OCO2 | 3.2 | > 100 | > 100 | 87.5 | > 100 | > 100 | – | – | > 100 | > 100 | > 100 | >37 | – | – | – | – |
| [SeH]Cc1c2ccccc2nc2ccccc12 | 39.1 | > 100 | > 100 | 83.2 | > 100 | > 100 | – | – | – | – | – | – | – | – | – | – |
| N#C[Se]Cc1c2ccccc2nc2ccccc12 | 40.1 | 44.5 | 67.6 | 16.6 | 40 | 28.3 | – | – | – | – | – | – | – | – | – | – |
| N#CSCc1ccc(-n2cccc2)cc1 | 8.2 | > 100 | 36.9 | 14.1 | 88.1 | 60.3 | – | – | 12.9 | > 100 | 23.5 | 1.6 | – | – | – | – |
| O=C1c2ccccc2C(=O)N1CS | > 100 | > 100 | > 100 | 74.7 | > 100 | > 100 | – | – | – | – | – | – | – | – | – | – |
| CSc1ccnc(SC)n1 | > 100 | > 100 | > 100 | 77.5 | > 100 | > 100 | – | – | – | – | – | – | – | – | – | – |
| C[Se](=O)O | 1.3 | > 100 | 3.4 | 2.5 | 37.1 | 8.4 | – | – | 1.8 | > 100 | 3.8 | 1.4 | – | – | – | – |
| Cc1noc(C)c1C[Se]C#N | 2.2 | 24.5 | 8.3 | 5.6 | 17.6 | 10.3 | – | – | 2 | 22.8 | 4 | <1 | – | – | – | – |
| CC[C@@]1(O)C(=O)OCc2c1cc1n(c2=O)Cc2cc3ccccc3nc2-1 | – | – | – | – | – | – | – | – | – | – | – | – | 16.3 | 4.4 | 54.6 | 25.8 |
| N#CSc1nccc(Cl)n1 | 35 | > 100 | > 100 | > 100 | > 100 | > 100 | – | – | – | – | – | – | – | – | – | – |
| C[Se]c1ccc2ccccc2n1 | 21 | > 100 | > 100 | 83.6 | > 100 | > 100 | – | – | – | – | – | – | – | – | – | – |
| Sc1ccc2ccccc2n1 | > 100 | > 100 | > 100 | 85.3 | > 100 | > 100 | – | – | – | – | – | – | – | – | – | – |
| N#CSCc1c2ccccc2nc2ccccc12 | 0.9 | 34.4 | 17.5 | 1.5 | 28.3 | 2.4 | – | – | 14.4 | 38.5 | 26.4 | 16 | – | – | – | – |
| CSc1nc2ccccc2s1 | – | – | – | 39.6 | – | – | – | – | – | – | – | – | – | – | – | – |
| N#C[Se]Cc1cc2c(cc1Br)OCO2 | 66.9 | > 100 | > 100 | 24 | > 100 | 45.7 | – | – | – | – | – | – | – | – | – | – |
| CSc1ccc2ccccc2n1 | > 100 | > 100 | > 100 | 87 | > 100 | > 100 | – | – | > 100 | > 100 | > 100 | – | – | – | – | – |
| Sc1ccnc(S)n1 | > 100 | > 100 | > 100 | 82.5 | > 100 | > 100 | – | – | – | – | – | – | – | – | – | – |
| C[Se]c1nc2ccccc2s1 | 7.2 | > 100 | > 100 | > 100 | > 100 | > 100 | – | – | > 100 | > 100 | > 100 | >13.9 | – | – | – | – |
| [SeH]c1ccnc([SeH])n1 | 6.7 | 75.4 | 40 | 9.8 | 51.3 | 28.3 | – | – | 10.7 | 63.7 | 35.3 | 1.6 | – | – | – | – |
| N#CSCN1C(=O)c2ccccc2C1=O | 48.1 | > 100 | > 100 | > 100 | > 100 | > 100 | – | – | – | – | – | – | – | – | – | – |
| N#C[Se]CN1C(=O)c2ccccc2C1=O | 15.4 | 93.4 | 56.1 | 11.2 | 56.7 | 32.1 | – | – | – | – | – | – | – | – | – | – |
| [SeH]Cc1cc2c(cc1Br)OCO2 | 22.2 | > 50 | > 50 | 34.6 | > 50 | > 50 | – | – | – | – | – | – | – | – | – | – |
| N#CSCc1cc2c(cc1Br)OCO2 | 6.7 | > 100 | > 100 | 23.8 | 74.2 | 41.8 | – | – | > 100 | > 100 | > 100 | >14.9 | – | – | – | – |
| [SeH]c1nc2ccccc2s1 | > 50 | > 50 | > 50 | > 50 | > 50 | > 50 | – | – | – | – | – | – | – | – | – | – |
